Structures can show the parent of a compound that is named as a salt. Calls of active or inactive are those of the source. No cut-off for these calls is given here.
Tests used:
[1] = system: HepG2; assay: Antiproliferative activity against human HepG2 cells after 48 hrs by CCK8 assay; format: functional, cell-based; details: HepG2, 48 h
[2] = system: KB; assay: Antiproliferative activity against human KB cells after 48 hrs by CCK8 assay; format: functional, cell-based
[3] = Antiproliferative activity against human HCT8 cells after 48 hrs by CCK8 assay; format: functional, cell-based; details: HCT-8, 48 h
[4] = Antiproliferative activity against human SGC7901 cells after 48 hrs by CCK8 assay; format: functional, cell-based; details: SGC-7901, 48 h
[5] = biological target: T1, DNA topoisomerase 1 (Homo sapiens) (UniProt P11387); assay: Inhibition of purified Topo 1 (unknown origin)-mediated supercoiled pBR322 DNA cleavage at 12.5 uM after 15 mins by agarose gel electrophoresis
T1 sequence (whole entry): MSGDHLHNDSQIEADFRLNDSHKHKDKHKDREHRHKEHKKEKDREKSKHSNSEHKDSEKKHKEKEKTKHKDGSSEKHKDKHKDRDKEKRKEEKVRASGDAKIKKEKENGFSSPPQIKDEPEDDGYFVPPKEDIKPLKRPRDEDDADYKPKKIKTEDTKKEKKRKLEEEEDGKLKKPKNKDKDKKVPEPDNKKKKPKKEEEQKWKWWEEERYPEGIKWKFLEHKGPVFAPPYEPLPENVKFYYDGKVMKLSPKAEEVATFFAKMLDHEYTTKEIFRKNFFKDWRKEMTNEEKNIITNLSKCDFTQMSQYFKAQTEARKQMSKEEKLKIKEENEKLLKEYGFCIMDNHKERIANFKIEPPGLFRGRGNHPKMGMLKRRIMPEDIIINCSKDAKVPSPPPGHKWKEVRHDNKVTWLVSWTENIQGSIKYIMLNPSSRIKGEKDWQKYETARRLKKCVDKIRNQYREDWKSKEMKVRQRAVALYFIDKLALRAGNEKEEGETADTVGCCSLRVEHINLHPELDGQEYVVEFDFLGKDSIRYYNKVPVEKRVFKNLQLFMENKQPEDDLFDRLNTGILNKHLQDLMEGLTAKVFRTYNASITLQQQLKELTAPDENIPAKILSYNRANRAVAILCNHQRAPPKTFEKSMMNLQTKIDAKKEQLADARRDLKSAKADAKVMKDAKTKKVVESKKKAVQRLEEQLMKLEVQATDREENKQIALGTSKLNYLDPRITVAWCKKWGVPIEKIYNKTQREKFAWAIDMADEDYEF

[6] = system: SGC-7901; assay: Ratio of 10-hydroxycamptothecin IC50 to compound IC50 for human SGC7901 cells after 48 hrs by CCK8 assay; format: functional

Structure (SMILES): CC[C@@]1(O)C(=O)OCc2c1cc1n(c2=O)Cc2cc3c(CSC(C)(C)C)c(O)ccc3nc2-1
- IC50 [1]: 0.762 µM
- IC50 [2]: 1.41 µM
- IC50 [3]: 1.43 µM
- IC50 [4]: 3.14 µM

Structure (SMILES): CCCSCc1c(O)ccc2nc3c(cc12)Cn1c-3cc2c(c1=O)COC(=O)[C@]2(O)CC
- IC50 [1]: 0.734 µM
- IC50 [2]: 2.17 µM
- IC50 [3]: 0.746 µM
- IC50 [4]: 2.82 µM

Structure (SMILES): CC[C@@]1(O)C(=O)OCc2c1cc1n(c2=O)Cc2cc3c(CSC(C)C)c(O)ccc3nc2-1
- IC50 [1]: 0.351 µM
- IC50 [2]: 0.994 µM
- IC50 [3]: 0.406 µM
- IC50 [4]: 0.993 µM
- inhibition [5]: Active

Structure (SMILES): CC[C@@]1(O)C(=O)OCc2c1cc1n(c2=O)Cc2cc3c(CSCC(=O)OC)c(O)ccc3nc2-1
- IC50 [1]: 3.2 µM
- IC50 [2]: 12.9 µM
- IC50 [3]: 3.09 µM
- IC50 [4]: 9.02 µM

Structure (SMILES): CC[C@@]1(O)C(=O)OCc2c1cc1n(c2=O)Cc2cc3c(CN(C)C)c(O)ccc3nc2-1 [TOPOTECAN HYDROCHLORIDE]
- IC50 [1]: 4.21 µM
- IC50 [2]: 2.28 µM
- IC50 [3]: 1.88 µM
- IC50 [4]: 2.29 µM

Structure (SMILES): CCOC1CCc2c(ccc3nc4c(cc23)Cn2c-4cc3c(c2=O)COC(=O)[C@]3(O)CC)O1 (some centres not stated)
- IC50 [1]: 0.265 µM
- IC50 [2]: 1.48 µM
- IC50 [3]: 0.401 µM
- IC50 [4]: 0.413 µM

Structure (SMILES): CCN(CC)CCSCc1c(O)ccc2nc3c(cc12)Cn1c-3cc2c(c1=O)COC(=O)[C@]2(O)CC
- IC50 [1]: 5.09 µM
- IC50 [2]: 32.5 µM
- IC50 [3]: 21.9 µM
- IC50 [4]: 10.4 µM

Structure (SMILES): CC[C@@]1(O)C(=O)OCc2c1cc1n(c2=O)Cc2cc3c4c(ccc3nc2-1)OC(OCC(C)C)CC4 (some centres not stated)
- IC50 [1]: 0.387 µM
- IC50 [2]: 1.14 µM
- IC50 [3]: 0.471 µM
- IC50 [4]: 0.344 µM

Structure (SMILES): CC[C@@]1(O)C(=O)OCc2c1cc1n(c2=O)Cc2cc3c4c(ccc3nc2-1)OC(O)CC4 (some centres not stated)
- IC50 [1]: 0.184 µM
- IC50 [2]: 0.777 µM
- IC50 [3]: 0.567 µM
- IC50 [4]: 0.536 µM
- inhibition [5]: Active

Structure (SMILES): CCSCc1c(O)ccc2nc3c(cc12)Cn1c-3cc2c(c1=O)COC(=O)[C@]2(O)CC
- IC50 [1]: 0.595 µM
- IC50 [2]: 2.19 µM
- IC50 [3]: 0.282 µM
- IC50 [4]: 0.549 µM

Structure (SMILES): CC[C@@]1(O)C(=O)OCc2c1cc1n(c2=O)Cc2cc3c(CSC)c(O)ccc3nc2-1
- IC50 [1]: 70.4 µM
- IC50 [2]: 19.3 µM
- IC50 [3]: 1.22 µM
- IC50 [4]: 2.17 µM

Structure (SMILES): CC[C@@]1(O)C(=O)OCc2c1cc1n(c2=O)Cc2cc3c4c(ccc3nc2-1)O[C@@H]1OCCC[C@H]1C4
- IC50 [1]: 0.266 µM
- IC50 [2]: 1.23 µM
- IC50 [3]: 0.204 µM
- IC50 [4]: 0.255 µM
- Ratio IC50 [6]: 4

Structure (SMILES): CCCCOC1CCc2c(ccc3nc4c(cc23)Cn2c-4cc3c(c2=O)COC(=O)[C@]3(O)CC)O1 (some centres not stated)
- IC50 [1]: 0.145 µM
- IC50 [2]: 0.95 µM
- IC50 [3]: 0.317 µM
- IC50 [4]: 0.772 µM
- inhibition [5]: inactive

Structure (SMILES): CC[C@@]1(O)C(=O)OCc2c1cc1n(c2=O)Cc2cc3c(CSCCC(=O)O)c(O)ccc3nc2-1
- IC50 [1]: 89 µM
- IC50 [2]: > 100 µM
- IC50 [3]: 30.3 µM
- IC50 [4]: 40.8 µM
- inhibition [5]: inactive

Structure (SMILES): CC[C@@]1(O)C(=O)OCc2c1cc1n(c2=O)Cc2cc3c4c(ccc3nc2-1)O[C@@H]1OCC[C@H]1C4
- IC50 [1]: 0.332 µM
- IC50 [2]: 1.71 µM
- IC50 [3]: 0.203 µM
- IC50 [4]: 0.182 µM
- Ratio IC50 [6]: 4
- inhibition [5]: inactive

Structure (SMILES): CC[C@@]1(O)C(=O)OCc2c1cc1n(c2=O)Cc2cc3cc(O)ccc3nc2-1 [HYDROXYCAMPTOTHECIN]
- IC50 [1]: 0.499 µM
- IC50 [2]: 0.128 µM
- IC50 [3]: 0.181 µM
- IC50 [4]: 0.835 µM
- inhibition [5]: Active

— ChEMBL document CHEMBL3351695, “Synthesis of novel 10-hydroxycamptothecin derivatives utilizing topotecan hydrochloride as ortho-quinonemethide precursor” (Bioorg Med Chem, 2015)
